Common to all, as to format: cell-based
For assay [1], the target named is T1, protein kinases (human kinome) (Homo sapiens, UniProt Q53H12).
T1 sequence (Q53H12 1-422): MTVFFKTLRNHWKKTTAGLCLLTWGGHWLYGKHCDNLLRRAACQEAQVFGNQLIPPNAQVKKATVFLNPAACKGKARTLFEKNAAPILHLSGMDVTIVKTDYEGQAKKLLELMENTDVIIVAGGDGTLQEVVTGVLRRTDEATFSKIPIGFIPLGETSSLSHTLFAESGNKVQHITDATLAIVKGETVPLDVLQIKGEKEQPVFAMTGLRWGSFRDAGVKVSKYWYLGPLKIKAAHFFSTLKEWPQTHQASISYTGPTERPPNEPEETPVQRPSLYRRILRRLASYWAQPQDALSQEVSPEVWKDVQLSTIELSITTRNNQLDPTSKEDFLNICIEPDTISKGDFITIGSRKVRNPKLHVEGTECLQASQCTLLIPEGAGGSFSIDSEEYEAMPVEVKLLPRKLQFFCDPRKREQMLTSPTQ
Particulars: direction down.

For assay [2], the target named is protein kinases (human kinome) (Homo sapiens, UniProt P07947). Particulars: YES1 (P07947).
For assay [3], the target named is protein kinases (human kinome) (Homo sapiens, UniProt P42684). Conditions: for logFC: ABL2 (P42684) protein abundance, degrader vs DMSO, down.
Assay [4] deals with protein kinases (human kinome) (Homo sapiens, UniProt P45984). Conditions: MAPK9 P45984-1; experiment wp168.
The target of assay [5] is protein kinases (human kinome) (Homo sapiens, UniProt Q07912).
For assay [6], the target named is protein kinases (human kinome) (Homo sapiens, UniProt Q13233).
Assay [7] deals with protein kinases (human kinome) (Homo sapiens, UniProt Q16539). Conditions: for logFC: MAPK14 (Q16539); for logFC MAPK14: MAPK14, accession Q16539, direction of change down.
The target of assay [8] is T2, protein kinases (human kinome) (Homo sapiens, UniProt Q12851).
T2 sequence (Q12851 1-820): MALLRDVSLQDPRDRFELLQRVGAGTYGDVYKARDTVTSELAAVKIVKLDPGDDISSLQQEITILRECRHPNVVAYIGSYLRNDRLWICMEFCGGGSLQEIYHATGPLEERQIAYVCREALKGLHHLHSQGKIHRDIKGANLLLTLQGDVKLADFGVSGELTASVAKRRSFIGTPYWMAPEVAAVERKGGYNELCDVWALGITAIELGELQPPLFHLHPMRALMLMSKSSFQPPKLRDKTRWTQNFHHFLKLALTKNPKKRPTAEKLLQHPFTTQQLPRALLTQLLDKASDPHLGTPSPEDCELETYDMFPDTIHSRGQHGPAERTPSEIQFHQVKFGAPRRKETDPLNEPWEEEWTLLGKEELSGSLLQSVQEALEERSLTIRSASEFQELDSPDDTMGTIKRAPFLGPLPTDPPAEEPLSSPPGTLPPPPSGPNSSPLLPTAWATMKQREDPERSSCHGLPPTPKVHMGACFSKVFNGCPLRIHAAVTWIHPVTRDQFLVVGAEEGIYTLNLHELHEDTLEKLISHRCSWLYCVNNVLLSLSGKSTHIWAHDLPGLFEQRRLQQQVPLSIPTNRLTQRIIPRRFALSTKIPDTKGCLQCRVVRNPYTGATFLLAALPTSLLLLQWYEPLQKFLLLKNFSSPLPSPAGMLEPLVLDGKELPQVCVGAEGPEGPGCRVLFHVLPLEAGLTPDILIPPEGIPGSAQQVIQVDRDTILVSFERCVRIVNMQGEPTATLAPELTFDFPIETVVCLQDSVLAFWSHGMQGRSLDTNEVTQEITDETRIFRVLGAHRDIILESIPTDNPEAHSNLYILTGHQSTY
Conditions: for logFC MAP4K2 (Q12851): direction down; for logFC: MAP4K2 (Q12851).

This note sets out measurements from patent US20240269139A1, “COMPOUNDS FOR TARGETED PROTEIN DEGRADATION OF KINASES” (DANA-FARBER CANCER INSTITUTE, INC., priority 2020, published 2024).

Values joined by “and” are separate entries in the source; they are usually repeats but may differ in a detail not shown here. Equal entries are not always repeated. Where two headings read alike, the source gives them in different places.

protein kinases (human kinome) (Homo sapiens, UniProt Q13233), sequence (Q13233 whole entry): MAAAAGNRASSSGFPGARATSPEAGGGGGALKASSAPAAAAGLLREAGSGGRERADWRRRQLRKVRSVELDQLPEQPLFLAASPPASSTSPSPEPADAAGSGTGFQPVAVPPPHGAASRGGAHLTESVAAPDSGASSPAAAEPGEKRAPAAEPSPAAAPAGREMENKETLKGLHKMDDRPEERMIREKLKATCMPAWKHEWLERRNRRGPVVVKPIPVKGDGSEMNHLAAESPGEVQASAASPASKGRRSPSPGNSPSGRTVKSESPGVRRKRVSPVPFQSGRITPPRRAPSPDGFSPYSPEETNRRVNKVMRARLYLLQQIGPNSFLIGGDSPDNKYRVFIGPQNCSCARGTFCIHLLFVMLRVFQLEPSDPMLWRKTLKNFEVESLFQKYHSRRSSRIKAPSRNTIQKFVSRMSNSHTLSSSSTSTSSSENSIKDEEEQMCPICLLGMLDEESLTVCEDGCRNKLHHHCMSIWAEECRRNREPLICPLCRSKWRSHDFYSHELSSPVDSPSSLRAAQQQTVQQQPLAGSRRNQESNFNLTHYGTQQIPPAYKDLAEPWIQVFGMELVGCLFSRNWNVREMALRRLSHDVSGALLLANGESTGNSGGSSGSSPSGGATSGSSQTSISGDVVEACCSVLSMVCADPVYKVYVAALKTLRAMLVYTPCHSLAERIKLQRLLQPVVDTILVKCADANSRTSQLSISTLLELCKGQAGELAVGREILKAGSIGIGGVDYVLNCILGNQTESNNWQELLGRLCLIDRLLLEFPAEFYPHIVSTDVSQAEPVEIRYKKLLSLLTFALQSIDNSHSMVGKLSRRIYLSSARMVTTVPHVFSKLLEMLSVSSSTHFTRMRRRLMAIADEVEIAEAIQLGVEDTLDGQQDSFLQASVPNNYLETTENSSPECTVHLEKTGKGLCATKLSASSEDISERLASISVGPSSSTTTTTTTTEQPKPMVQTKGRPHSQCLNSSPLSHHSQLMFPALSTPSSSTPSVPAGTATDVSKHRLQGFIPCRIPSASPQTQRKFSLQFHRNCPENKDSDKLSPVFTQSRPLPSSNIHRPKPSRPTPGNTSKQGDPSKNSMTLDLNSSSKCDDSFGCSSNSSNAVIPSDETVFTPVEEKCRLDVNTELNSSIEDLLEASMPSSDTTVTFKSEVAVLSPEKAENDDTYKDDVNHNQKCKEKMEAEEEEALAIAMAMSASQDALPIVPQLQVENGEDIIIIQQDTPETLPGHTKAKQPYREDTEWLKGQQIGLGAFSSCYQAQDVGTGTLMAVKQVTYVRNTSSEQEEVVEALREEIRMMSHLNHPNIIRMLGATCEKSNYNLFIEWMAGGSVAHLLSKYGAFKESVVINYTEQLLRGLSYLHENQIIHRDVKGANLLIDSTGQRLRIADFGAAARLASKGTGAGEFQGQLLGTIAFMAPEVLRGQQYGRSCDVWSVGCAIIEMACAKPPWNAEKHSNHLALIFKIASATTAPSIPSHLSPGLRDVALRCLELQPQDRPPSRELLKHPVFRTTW
protein kinases (human kinome) (Homo sapiens, UniProt Q16539), sequence (Q16539 whole entry): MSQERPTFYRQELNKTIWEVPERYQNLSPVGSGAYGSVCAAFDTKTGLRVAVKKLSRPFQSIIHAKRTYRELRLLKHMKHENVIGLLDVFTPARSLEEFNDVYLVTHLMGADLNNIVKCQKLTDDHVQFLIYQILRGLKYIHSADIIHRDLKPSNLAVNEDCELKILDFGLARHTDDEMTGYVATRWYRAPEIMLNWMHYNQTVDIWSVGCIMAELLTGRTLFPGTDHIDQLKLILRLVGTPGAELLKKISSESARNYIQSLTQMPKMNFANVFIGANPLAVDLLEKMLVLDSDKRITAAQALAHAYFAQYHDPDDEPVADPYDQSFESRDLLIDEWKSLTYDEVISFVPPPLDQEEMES
protein kinases (human kinome) (Homo sapiens, UniProt P07947), sequence (P07947 whole entry): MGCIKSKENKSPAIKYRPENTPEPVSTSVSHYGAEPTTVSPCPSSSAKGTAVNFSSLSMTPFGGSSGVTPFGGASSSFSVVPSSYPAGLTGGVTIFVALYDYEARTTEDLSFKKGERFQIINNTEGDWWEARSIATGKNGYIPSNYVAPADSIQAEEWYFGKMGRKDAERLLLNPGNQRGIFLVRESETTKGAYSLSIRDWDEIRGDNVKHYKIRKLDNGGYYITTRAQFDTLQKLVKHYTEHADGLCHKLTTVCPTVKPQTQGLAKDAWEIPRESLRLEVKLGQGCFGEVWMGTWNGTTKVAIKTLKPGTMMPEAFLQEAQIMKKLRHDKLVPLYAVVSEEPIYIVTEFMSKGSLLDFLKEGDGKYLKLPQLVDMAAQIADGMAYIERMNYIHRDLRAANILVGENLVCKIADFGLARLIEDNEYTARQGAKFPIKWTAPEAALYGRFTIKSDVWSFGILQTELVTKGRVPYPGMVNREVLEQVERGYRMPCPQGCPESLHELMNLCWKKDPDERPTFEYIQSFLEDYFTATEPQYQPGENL
protein kinases (human kinome) (Homo sapiens, UniProt P42684), sequence (P42684 whole entry): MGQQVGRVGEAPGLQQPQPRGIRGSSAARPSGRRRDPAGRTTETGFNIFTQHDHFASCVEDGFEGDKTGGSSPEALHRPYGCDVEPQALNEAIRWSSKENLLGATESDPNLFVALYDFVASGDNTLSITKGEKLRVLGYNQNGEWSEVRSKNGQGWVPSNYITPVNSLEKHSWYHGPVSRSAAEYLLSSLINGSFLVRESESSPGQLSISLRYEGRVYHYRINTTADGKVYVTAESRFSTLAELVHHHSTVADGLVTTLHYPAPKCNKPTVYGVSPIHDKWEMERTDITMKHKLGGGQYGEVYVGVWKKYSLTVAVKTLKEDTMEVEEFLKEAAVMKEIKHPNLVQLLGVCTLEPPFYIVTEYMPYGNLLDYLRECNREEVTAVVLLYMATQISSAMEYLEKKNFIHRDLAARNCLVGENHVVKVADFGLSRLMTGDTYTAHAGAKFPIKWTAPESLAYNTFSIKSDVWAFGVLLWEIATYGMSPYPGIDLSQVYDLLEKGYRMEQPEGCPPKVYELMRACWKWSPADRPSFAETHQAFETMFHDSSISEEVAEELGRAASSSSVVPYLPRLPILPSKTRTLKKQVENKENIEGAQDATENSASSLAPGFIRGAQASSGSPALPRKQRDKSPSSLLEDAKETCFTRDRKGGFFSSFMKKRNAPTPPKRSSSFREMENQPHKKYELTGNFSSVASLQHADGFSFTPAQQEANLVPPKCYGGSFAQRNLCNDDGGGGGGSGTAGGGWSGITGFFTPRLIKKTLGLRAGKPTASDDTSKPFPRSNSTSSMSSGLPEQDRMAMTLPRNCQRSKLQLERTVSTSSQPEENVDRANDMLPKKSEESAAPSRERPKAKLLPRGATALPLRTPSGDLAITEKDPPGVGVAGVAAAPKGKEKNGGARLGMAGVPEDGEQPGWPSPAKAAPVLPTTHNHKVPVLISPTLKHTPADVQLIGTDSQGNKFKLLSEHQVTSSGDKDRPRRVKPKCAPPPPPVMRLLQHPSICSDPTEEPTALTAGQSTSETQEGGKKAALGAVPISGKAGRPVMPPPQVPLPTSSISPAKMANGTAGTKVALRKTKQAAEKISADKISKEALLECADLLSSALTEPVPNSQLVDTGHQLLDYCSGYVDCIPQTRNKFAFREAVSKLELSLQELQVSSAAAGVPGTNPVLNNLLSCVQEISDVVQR
protein kinases (human kinome) (Homo sapiens, UniProt P45984), sequence (P45984 whole entry): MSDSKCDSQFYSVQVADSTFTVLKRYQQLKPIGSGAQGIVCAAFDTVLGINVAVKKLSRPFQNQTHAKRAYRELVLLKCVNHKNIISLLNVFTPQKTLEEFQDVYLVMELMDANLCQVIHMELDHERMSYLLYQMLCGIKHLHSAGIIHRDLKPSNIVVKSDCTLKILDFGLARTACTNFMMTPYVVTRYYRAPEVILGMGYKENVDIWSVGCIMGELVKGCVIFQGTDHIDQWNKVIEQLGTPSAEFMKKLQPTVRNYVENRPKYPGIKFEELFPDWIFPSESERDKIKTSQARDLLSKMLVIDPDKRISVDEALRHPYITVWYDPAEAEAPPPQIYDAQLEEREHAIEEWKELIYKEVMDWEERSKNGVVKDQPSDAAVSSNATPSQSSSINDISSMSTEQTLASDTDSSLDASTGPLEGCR
protein kinases (human kinome) (Homo sapiens, UniProt Q07912), sequence (Q07912 whole entry): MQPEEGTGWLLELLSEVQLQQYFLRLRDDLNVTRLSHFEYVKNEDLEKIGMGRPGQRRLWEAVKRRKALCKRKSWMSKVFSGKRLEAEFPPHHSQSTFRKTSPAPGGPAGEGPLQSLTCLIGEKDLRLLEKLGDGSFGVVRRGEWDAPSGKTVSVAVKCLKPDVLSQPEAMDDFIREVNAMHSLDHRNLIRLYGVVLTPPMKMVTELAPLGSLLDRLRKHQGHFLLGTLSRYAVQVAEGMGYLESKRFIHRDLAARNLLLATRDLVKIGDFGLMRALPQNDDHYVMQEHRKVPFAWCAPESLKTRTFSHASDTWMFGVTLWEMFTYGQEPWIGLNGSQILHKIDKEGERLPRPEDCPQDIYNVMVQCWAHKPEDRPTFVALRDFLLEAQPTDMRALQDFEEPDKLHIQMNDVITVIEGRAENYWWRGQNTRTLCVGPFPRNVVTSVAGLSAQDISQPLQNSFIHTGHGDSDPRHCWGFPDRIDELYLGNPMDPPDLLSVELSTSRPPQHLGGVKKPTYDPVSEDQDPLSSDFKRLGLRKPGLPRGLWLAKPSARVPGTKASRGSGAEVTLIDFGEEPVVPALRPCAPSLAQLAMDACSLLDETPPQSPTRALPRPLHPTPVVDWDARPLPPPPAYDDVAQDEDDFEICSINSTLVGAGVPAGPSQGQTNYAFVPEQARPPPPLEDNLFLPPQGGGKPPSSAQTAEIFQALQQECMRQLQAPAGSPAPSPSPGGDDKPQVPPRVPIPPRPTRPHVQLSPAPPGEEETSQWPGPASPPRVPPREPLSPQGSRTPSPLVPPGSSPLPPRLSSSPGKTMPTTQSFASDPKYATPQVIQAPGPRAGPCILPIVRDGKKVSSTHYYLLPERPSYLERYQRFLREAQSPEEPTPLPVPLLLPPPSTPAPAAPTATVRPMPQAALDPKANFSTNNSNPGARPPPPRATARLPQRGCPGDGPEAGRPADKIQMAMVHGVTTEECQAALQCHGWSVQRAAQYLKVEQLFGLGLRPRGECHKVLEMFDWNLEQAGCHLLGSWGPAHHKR

For the compound `CC(=O)c1c(C)c2cnc(Nc3ccc(N4CCN(CCOCCOCCOCCNC(=O)COc5cccc6c5C(=O)N(C5CCC(=O)NC5=O)C6=O)CC4)cn3)nc2n(C2CCCC2)c1=O` (stereo not drawn) [BSJ.03.123], the “logFC AGK (Q53H12)” value in assay [1] (Experiment wp084) is −0.6506.
Take `CN(C)C(=O)c1cc2cnc(Nc3ccc(N4CCN(CCCCNC(=O)COc5cccc6c5C(=O)N(C5CCC(=O)NC5=O)C6=O)CC4)cn3)nc2n1C1CCCC1` (stereo not drawn) [BSJ.04.132]: the “logFC AGK (Q53H12)” value in assay [1] (Experiment wp084) is −0.6709.
On to `Cc1ccc(NC(=O)c2cccc(C(F)(F)F)c2)cc1N1Cc2cnc(Nc3ccc(N4CCN(CCCOc5cccc6c5C(=O)N(C5CCC(=O)NC5=O)C6=O)CC4)nc3)nc2N(C)C1=O` (stereo not drawn) [DB0662], for which the logFC in assay [2] (experiment wp168) is reported as −0.8025; in assay [2] (experiment wp168, direction down) it was −0.8025; in assay [3], −1.207; in assay [4], −2.611; in assay [7] (experiment wp168), −1.002. In assay [3] (Experiment wp168), the “logFC ABL2 (P42684)” value was −1.207. For the same compound, in assay [4], the “logFC MAPK9” value is listed as −2.611. The “logFC TNK2 (Q07912-1)” value in assay [5] (Experiment wp168, direction down) is −0.6943. Moreover, the “logFC TNK2” value in assay [5] (TNK2 (Q07912-1), experiment wp168) is recorded as −0.6943. The “logFC MAP3K1” value is −0.7087 in assay [6] (Accession Q13233, experiment wp168, direction down) and −0.7087 in assay [6] (MAP3K1 (Q13233), experiment wp168). Also, in assay [7] (experiment wp166), the “logFC MAPK14” value is recorded as −1.002.
Consider `CC(C)(C)c1nc(-c2cccc(NS(=O)(=O)c3c(F)cccc3F)c2F)c(-c2ccnc(NCCOCCNC(=O)CCOCCOCCNc3cccc4c3C(=O)N(C3CCC(=O)NC3=O)C4=O)n2)s1` (stereo not drawn) [DD.03.106], for which the “logFC AGK (Q53H12)” value in assay [1] (Experiment wp147, 2 uM) is listed as −0.346; in assay [1] (Experiment wp147, 4 uM) it was −0.9499.
As for `CC(C)(C)c1nc(-c2cccc(NS(=O)(=O)c3c(F)cccc3F)c2F)c(-c2ccnc(NCCOCCNC(=O)CCOCCOCCNc3cccc4c3CN(C3CCC(=O)NC3=O)C4=O)n2)s1` (stereo not drawn) [DD.03.107], the “logFC AGK (Q53H12)” value in assay [1] (Experiment wp147, 1 uM) is −0.7983; in assay [1] (Experiment wp147, 2 uM), −0.8655; in assay [1] (Experiment wp147, 4 uM), −1.343.
For the compound `O=C(COc1cccc2c1C(=O)N(C1CCC(=O)NC1=O)C2=O)NCCCCCCCC(=O)NC1(c2ccc(-c3nc4ccn5c(=O)[nH]nc5c4cc3-c3ccccc3)cc2)CCC1` (stereo not drawn) [INY.01.140.1], the “logFC AGK (Q53H12)” value in assay [1] (Experiment wp081) was −0.4936.
On to `Cc1cnc(Nc2ccc(N3CCN(CCOCCOCCNC(=O)COc4cccc5c4C(=O)N(C4CCC(=O)NC4=O)C5=O)CC3)cc2)nc1Nc1cccc(S(=O)(=O)NC(C)(C)C)c1` (stereo not drawn) [JWG.118], for which the “logFC AGK (Q53H12)” value in assay [1] (Experiment wp071) is recorded as −0.5599.
In the case of `CNC(=O)c1ccccc1Nc1cc(Nc2ccc(N3CCN(CCOCCOCCNC(=O)CNc4cccc5c4C(=O)N(C4CCC(=O)NC4=O)C5=O)CC3)cc2OC)ncc1C(F)(F)F` (stereo not drawn) [MFH.5.103.1], the “logFC AGK (Q53H12)” value in assay [1] (Experiment wp076) was −0.3672.
Consider `Nc1ncnc2c1c(-c1ccc(Oc3ccccc3)cc1)nn2[C@H]1CC[C@H](N2CCN(CCOCCNC(=O)CNc3cccc4c3C(=O)N(C3CCC(=O)NC3=O)C4=O)CC2)CC1` (stereo partly drawn) [SB1.G.181], for which, in assay [3], the logFC is −2.405. Moreover, the “logFC ABL2 (P42684)” value in assay [3] (experiment wp071) is −2.405. Moreover, in assay [1] (Experiment wp071), the “logFC AGK (Q53H12)” value was −0.3991.
As for `Cc1ccc(C(=O)Nc2ccc(CN3CCN(CCCOCCOCCOCCNC(=O)COc4cccc5c4C(=O)N(C4CCC(=O)NC4=O)C5=O)CC3)c(C(F)(F)F)c2)cc1C#Cc1cnc2cccnn12` (stereo not drawn) [SB1.G.187], the logFC in assay [2] (experiment wp172) was −0.5324; in assay [2] (experiment wp172, direction down) it was −0.5324; in assay [3], −0.6252 and −0.6455; in assay [8] (experiment wp056), −1.847; in assay [8] (experiment wp103), −1.79; in assay [8] (experiment wp105), −1.757. Further, the logFC in assay [8] (experiment wp107) is −2.048; in assay [8] (experiment wp114) it was −0.7516; in assay [7] (experiment wp103), −0.83; in assay [7] (experiment wp107), −0.924; in assay [7] (experiment wp172), −0.5198. Moreover, the results for the “logFC ABL2 (P42684)” value in assay [3] (Experiment wp107) and in assay [3] (experiment wp056) were −0.6455 and −0.6252, respectively. Also, the “logFC MAP4K2 (Q12851)” value is −1.847 in assay [8] (Experiment wp056); −1.79 in assay [8] (Experiment wp103); −1.757 in assay [8] (Experiment wp105); −2.048 in assay [8] (Experiment wp107); −0.7516 in assay [8] (Experiment wp114). Further, the “logFC MAP3K1” value is −0.7809 in assay [6] (Accession Q13233, experiment wp056, direction down); −0.5815 in assay [6] (Accession Q13233, experiment wp103, direction down); −0.6693 in assay [6] (Accession Q13233, experiment wp107, direction down); −0.7809 in assay [6] (MAP3K1 (Q13233), experiment wp056); −0.5815 in assay [6] (MAP3K1 (Q13233), experiment wp103); −0.6693 in assay [6] (MAP3K1 (Q13233), experiment wp107). In addition, the “logFC of MAPK14” value in assay [7] (Accession Q16539, experiment wp172) was −0.5198. In addition, the “logFC MAPK14” value in assay [7] (experiment wp103) was −0.83; in assay [7] (experiment wp107), −0.924. The “logFC AGK (Q53H12)” value in assay [1] (Experiment wp056) was −0.5707.
Regarding `C=CCn1c(=O)c2cnc(Nc3ccc(N4CCN(CCCNc5cccc6c5C(=O)N(C5CCC(=O)NC5=O)C6=O)CC4)cc3)nc2n1-c1cccc(C(C)(C)O)n1` (stereo not drawn) [ZNL.02.096], in assay [1] (Experiment wp056), the “logFC AGK (Q53H12)” value is on record as −0.5514.
